Source: ChEMBL document CHEMBL1201862, “PubChem BioAssay data set” (2004)
Active and inactive are the calls of the source.

What was measured:
[1] = blockers of CRF-binding protein–CRF-R2 complex – cell-based, uHTS hits, 384-well, dose response (AID 651639); assay type: functional, Homo sapiens; settings: read-out: IC50_Mean
[2] = molecular target: T1, Corticotropin-releasing factor receptor 2/Corticotropin-releasing factor-binding protein (Homo sapiens, UniProt P24387+Q13324); assay: activators of CRF receptor 2 with binding protein – uHTS hits, confirmation (AID 602473); assay type: functional; settings: read-out: EC50_Mean
T1 sequence (Q13324 whole entry): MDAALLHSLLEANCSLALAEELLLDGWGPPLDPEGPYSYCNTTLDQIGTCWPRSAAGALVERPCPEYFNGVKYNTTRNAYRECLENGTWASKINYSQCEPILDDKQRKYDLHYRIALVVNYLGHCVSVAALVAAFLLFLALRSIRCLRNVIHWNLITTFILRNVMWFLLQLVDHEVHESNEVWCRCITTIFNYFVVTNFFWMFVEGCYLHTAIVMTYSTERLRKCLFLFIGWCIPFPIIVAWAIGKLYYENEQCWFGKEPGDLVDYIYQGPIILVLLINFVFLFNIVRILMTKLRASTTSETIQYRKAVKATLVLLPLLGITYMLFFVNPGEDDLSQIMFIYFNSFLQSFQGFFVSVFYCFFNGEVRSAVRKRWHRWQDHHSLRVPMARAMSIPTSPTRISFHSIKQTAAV
T1 sequence (P24387 whole entry): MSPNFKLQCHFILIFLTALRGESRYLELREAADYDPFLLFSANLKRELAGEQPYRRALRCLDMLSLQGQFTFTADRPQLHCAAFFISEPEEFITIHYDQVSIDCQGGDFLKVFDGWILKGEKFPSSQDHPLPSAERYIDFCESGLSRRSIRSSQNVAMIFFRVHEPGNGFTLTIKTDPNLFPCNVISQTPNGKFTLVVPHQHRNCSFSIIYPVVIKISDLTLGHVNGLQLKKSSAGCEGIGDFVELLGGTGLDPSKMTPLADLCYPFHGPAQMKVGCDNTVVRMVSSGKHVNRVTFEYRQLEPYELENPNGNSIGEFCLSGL

[3] = molecular target: T1, Corticotropin-releasing factor receptor 2/Corticotropin-releasing factor-binding protein; assay: Dose Response confirmation of uHTS hits for small molecule antagonists of the CRF-binding protein and CRF-R2 receptor complex.; assay type: functional; settings: read-out: IC50_Mean
[4] = system: HEK293; assay: cells; assay type: functional, cell-based; settings: Homo sapiens
[5] = molecular target: T2, Nuclear receptor subfamily 0 group B member 1 (Homo sapiens, UniProt P51843); assay: Luminescence-based cell-based high throughput dose response assay for inhibitors of the orphan nuclear receptor subfamily 0, group B, member 1 (DAX1; NR0B1). [Related pubchem assays (depositor defined):AID504766, AID504790]; assay type: functional
T2 sequence (P51843 whole entry): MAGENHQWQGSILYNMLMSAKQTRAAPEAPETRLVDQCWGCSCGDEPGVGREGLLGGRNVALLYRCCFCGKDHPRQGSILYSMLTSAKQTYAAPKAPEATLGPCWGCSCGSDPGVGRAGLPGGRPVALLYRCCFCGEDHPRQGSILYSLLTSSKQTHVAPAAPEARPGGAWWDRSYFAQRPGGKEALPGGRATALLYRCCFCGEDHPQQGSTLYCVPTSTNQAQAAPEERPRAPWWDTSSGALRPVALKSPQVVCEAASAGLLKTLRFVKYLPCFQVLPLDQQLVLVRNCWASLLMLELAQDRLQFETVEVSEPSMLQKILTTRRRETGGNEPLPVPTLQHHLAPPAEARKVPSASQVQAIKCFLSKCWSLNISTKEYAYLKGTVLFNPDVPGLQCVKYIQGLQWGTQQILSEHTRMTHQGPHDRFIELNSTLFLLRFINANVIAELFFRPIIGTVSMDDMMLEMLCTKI

[6] = molecular target: T3, Sentrin-specific protease 7 (Homo sapiens, UniProt Q9BQF6); assay type: functional;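 also: Luminescence-based dose-response confirmation of ultra-high-throughput screening hits, measuring inhibition of SENP7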
T3 sequence (Q9BQF6 whole entry): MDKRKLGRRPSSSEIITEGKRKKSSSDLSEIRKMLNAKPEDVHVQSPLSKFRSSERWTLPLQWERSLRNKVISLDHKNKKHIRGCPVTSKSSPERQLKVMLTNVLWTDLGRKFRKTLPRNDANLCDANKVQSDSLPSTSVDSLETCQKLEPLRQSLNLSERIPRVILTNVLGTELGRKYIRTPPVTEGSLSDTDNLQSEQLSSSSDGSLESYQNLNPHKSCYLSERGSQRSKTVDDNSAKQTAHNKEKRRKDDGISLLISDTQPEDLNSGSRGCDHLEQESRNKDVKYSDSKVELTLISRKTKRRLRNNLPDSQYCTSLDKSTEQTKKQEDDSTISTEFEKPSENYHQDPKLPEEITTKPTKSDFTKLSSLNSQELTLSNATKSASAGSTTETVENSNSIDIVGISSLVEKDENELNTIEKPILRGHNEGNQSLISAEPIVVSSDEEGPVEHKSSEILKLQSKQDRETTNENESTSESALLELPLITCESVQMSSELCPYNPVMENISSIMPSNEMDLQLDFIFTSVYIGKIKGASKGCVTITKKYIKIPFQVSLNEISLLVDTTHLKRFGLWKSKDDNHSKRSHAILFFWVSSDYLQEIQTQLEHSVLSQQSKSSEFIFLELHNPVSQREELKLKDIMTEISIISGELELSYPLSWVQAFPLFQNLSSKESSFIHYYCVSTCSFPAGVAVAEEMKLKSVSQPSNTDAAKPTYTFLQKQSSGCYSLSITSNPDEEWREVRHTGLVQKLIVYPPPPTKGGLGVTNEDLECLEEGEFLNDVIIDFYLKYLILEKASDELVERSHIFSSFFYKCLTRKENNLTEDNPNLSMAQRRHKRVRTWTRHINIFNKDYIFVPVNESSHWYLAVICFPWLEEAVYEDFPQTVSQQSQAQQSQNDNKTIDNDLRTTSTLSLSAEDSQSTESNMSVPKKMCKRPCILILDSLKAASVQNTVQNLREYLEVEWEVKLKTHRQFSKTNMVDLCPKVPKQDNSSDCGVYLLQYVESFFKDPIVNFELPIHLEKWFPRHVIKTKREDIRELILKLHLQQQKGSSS

[7] = molecular target: T4, Sentrin-specific protease 6 (Homo sapiens, UniProt Q9GZR1); assay type: functional;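 also: Luminescence-based dose-response confirmatory assay of SENP6 inhibition, following up an ultra-high-throughput screen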
T4 sequence (Q9GZR1 whole entry): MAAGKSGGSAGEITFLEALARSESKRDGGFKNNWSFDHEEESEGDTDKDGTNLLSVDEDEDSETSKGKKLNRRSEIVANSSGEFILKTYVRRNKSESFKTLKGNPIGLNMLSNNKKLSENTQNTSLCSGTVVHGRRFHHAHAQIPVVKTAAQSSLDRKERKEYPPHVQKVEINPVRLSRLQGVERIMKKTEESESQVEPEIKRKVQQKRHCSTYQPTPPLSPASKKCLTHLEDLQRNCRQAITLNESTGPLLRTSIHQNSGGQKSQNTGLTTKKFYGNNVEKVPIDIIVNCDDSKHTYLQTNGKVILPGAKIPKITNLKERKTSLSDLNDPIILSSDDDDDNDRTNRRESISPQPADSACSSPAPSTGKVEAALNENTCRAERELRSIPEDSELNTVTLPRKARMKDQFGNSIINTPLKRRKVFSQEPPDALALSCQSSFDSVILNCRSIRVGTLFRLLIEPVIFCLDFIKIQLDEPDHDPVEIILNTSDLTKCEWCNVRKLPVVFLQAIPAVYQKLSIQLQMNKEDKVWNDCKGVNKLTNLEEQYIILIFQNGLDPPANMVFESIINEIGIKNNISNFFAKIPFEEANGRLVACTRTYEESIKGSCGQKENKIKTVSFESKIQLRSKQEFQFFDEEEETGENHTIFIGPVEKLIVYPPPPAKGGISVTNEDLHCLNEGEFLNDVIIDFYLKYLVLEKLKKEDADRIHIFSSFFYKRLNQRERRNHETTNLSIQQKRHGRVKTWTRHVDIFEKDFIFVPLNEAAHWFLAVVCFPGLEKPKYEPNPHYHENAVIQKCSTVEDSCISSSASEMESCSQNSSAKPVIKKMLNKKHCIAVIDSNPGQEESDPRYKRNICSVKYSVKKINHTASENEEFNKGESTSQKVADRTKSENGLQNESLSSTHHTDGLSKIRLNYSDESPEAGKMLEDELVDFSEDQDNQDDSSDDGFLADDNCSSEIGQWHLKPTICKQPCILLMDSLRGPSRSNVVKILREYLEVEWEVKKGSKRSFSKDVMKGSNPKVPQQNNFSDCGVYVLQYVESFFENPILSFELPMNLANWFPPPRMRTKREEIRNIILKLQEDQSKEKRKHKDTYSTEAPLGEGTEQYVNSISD

[8] = molecular target: T5, Sentrin-specific protease 8 (Homo sapiens, UniProt Q96LD8); assay type: functional;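 also: luminescence read-out of SENP8 inhibition, dose-response confirmation following an ultra-high-throughput screen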
T5 sequence (Q96LD8 whole entry): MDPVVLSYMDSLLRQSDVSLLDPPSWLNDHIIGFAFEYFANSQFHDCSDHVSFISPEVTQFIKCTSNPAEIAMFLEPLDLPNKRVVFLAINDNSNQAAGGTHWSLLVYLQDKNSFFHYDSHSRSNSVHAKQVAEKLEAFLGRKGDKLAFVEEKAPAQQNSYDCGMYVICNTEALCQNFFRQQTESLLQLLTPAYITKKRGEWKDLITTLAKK

[9] = molecular target: T6, Caspase-3 (Homo sapiens, UniProt P42574); assay type: functional;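 also: Dose-response selectivity test against caspase-3 for candidate inhibitors of sentrin-specific proteases (SENPs)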
T6 sequence (P42574 whole entry): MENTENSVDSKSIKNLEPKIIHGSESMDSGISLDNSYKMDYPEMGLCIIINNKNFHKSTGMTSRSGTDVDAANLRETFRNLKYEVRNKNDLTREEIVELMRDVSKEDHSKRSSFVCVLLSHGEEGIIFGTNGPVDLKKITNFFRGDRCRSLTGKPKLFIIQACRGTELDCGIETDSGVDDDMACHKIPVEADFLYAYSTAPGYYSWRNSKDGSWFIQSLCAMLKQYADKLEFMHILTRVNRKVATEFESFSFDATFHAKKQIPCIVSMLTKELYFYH

[10] = inhibition of ARNT PAS-B/TACC3 complex formation – biochemical, AlphaScreen, cherry-picked samples, confirmation (AID 651703); assay type: functional, Homo sapiens;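 also: His-tagged ARNT PAS-B domain paired with GST-TACC3 E629A dimer coactivator fragment; potency of inhibitors that break up the complex and lower AlphaScreen signal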
[11] = viability of HCT116 lacking mutant beta-catenin – cell-based, human colon tumor, dose response (AID 1045); assay type: functional;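 also: HCT116 colon tumor cells with beta catenin knocked out; cells exposed to compound for 60 hours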
[12] = viability of PTEN-deleted HCT116 cells – cell-based, HCT116 PTEN knockout, dose response (AID 1047); assay type: functional;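 also: HCT116 colon tumor cells with PTEN knocked out; cells exposed to compound for 60 hours before readout; potency for loss of cell viability measured by luminescence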
[13] = molecular target: T7, Rac GTPase-activating protein 1 (Homo sapiens, UniProt Q9H0H5); assay: blockers of MgcRacGAP-driven Rac1 GTP hydrolysis – biochemical, ADP Hunter fluorescence, primary and confirmatory, confirmation (AID 624330); assay type: functional
T7 sequence (Q9H0H5 whole entry): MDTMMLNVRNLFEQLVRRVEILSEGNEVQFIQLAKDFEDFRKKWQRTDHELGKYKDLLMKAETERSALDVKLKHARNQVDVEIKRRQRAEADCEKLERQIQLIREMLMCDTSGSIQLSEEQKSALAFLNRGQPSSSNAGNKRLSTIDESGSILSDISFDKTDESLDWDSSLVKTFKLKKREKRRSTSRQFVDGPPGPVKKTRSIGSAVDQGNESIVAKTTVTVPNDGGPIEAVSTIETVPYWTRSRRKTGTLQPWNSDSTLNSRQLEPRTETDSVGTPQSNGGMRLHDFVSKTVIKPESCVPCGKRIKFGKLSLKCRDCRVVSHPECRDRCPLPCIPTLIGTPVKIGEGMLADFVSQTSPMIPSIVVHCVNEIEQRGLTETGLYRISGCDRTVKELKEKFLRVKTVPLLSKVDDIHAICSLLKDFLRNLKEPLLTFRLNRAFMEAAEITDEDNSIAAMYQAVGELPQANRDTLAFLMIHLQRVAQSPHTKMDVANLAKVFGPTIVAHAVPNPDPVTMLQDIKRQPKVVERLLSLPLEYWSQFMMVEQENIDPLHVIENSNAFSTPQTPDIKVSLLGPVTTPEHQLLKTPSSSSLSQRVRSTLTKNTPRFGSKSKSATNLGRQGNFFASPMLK

[14] = molecular target: Large T antigen (Simian virus 40, UniProt P03070); assay type: functional, Betapolyomavirus macacae;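 also: Confirmatory-stage PubChem screen for compounds that inhibit SV40 T antigen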
Large T antigen, sequence (P03070 whole entry): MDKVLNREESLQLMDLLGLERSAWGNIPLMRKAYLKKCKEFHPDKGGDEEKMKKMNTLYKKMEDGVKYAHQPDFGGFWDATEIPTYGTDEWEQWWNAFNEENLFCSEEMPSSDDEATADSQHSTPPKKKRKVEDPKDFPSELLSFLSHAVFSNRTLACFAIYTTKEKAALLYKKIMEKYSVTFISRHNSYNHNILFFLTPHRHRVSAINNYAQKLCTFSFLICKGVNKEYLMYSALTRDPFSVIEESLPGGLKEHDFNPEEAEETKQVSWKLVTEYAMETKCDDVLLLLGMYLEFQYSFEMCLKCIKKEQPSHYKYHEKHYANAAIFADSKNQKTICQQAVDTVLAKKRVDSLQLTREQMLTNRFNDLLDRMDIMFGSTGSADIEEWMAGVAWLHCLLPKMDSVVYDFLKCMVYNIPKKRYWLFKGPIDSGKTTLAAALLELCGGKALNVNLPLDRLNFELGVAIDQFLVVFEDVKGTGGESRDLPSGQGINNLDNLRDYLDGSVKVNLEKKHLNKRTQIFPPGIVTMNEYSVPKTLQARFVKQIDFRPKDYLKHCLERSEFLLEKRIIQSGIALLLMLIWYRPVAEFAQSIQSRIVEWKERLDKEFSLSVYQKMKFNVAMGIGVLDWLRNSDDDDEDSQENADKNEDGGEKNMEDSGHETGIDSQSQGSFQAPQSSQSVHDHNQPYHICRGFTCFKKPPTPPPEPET

| Structure (SMILES) | IC50 [4] | IC50 [5] | IC50 [6] | IC50 [7] | IC50 [8] | IC50 [9] | also measured |
| --- | --- | --- | --- | --- | --- | --- | --- |
| O=C(CCCCn1c(=O)c2ccccc2n(Cc2ccc(F)cc2Cl)c1=O)NCc1ccco1 | – | – | – | – | – | – | IC50 [1]: > 20 µM (inactive); EC50 [2]: > 53 µM (inactive); IC50 [3]: 19.4 µM (active) |
| COc1ccc(N2CCN(C(=O)C3CCN(S(=O)(=O)c4ccc(C)cc4)CC3)CC2)cc1 | > 67.5 µM (inactive) | > 67.5 µM (inactive) | – | – | – | – | – |
| COC(=O)c1sc(-c2ccc(Cl)cc2)cc1N | – | – | 2.96 µM (active) | 4.35 µM (active) | 67.1 µM (active) | 17.7 µM (active) | – |
| Cc1ccc(NC(=O)c2ccccc2NS(=O)(=O)c2ccc(F)cc2)cc1S(=O)(=O)N1CCCCC1 | – | – | – | – | – | – | IC50 [1]: 6.13 µM (active); EC50 [2]: 4.33 µM (active); IC50 [3]: 2.59 µM (active) |
| CN(Cc1ccccc1Cl)C(=O)CCNC(=O)c1ccco1 | > 67.5 µM (inactive) | > 67.5 µM (inactive) | – | – | – | – | – |
| CCC[C@H]1CN(c2ccccc2)C(=O)[C@@H]1CC(=O)Nc1ccc(Br)cc1 | > 67.5 µM (inactive) | > 67.5 µM (inactive) | – | – | – | – | – |
| O=C(Nc1ccc2c(c1)[C@@H]1C[C@H](CC(=O)N3CCc4ccccc4C3)O[C@@H](CO)[C@@H]1O2)c1ccc2c(c1)OCO2 | – | – | – | – | – | – | AC50 [10]: 134 µM (active) |
| CCCSC(=N)N/N=C/c1cc(C)ccc1O | – | – | 11.4 µM (active) | 93.5 µM (active) | > 100 µM (inactive) | 46.3 µM (active) | EC50 [11]: 30 µM (active); EC50 [12]: 32.5 µM (active) |
| CCOc1cc(/C=N/NC(=O)CSc2cccc3cccnc23)ccc1O | – | – | – | – | – | – | AC50 [10]: 90 µM (active); IC50 [13]: 34.2 µM (active); IC50 [14]: 7.45 µM (active) |
| C(=N\Nc1nc(-c2ccccc2)cs1)/c1cccs1 | – | – | 4.19 µM (active) | 12.8 µM (active) | 31.6 µM (active) | 29.8 µM (active) | – |
